Data from patent publication US20080242661A1, “Novel compounds useful for the treatment of degenerative & inflammatory diseases” (priority 2006, published 2008).
pIC50: −log10 of the molar value.

Biological target: purified PDE1A enzyme (Homo sapiens, UniProt P54750)
Assay: In vitro PDE1A assay, dose response (Biomol Cyclic Nucleotide Phosphodiesterase Assay Kit, colorimetric)
Format: biochemical
Conditions: 100 μM cAMP, 45 min at 37° C., 8 points from 20 μM, duplicate
Source text: For the dose response and further screening, we used the Cyclic Nucleotide Phosphodiesterase Assay Kit from Biomol, a colorimetric, non-radioactive assay. The basis for the assay is the cleavage of cAMP by PDE1A. The 5′AMP is further cleaved into the nucleoside and phosphate by the enzyme 5′-nucleotidase (catnr KI-307). The phosphate released due to enzymatic cleavage is quantified using BIOMOL GREEN™ reagent (catnr AK-111) in a modified Malachite Green assay 1,2. A PDE1A inhibitor will result in a decrease of the signal.
For the enzymatic reaction a mix of 25 μL with purified PDE1A enzyme, 100 μM cAMP, 5′Nucleotidase and the compound is made in a clear 384-plate. The reaction buffer is Tris 20 mM pH 7.4, 4 μg/ml calmodulin, 3 mM MgCl2, 1.5 mM CaCl2, 0.2 mg/mL BSA and 0.001% Brij-35. After an incubation of 45 minutes at 37° C., the reaction is stopped by the addition of 50 μL BIOMOL GREEN™ reagent. After 30 minutes incubation at room temperature, the readout is performed on the Envision (absorption at 615 nm).
All compounds are tested in duplicate starting from 20 μM followed by a ⅓ serial dilution, 8 points (20 μM-6.67 μM-2.22 μM-740 nM-247 nM-82 nM-27 nM-9 nM) in a final concentration of 1% DMSO. As the positive dose response control compound Vardenafil is used. For the calculation of z′ and PIN values 10 μM Vardenafil is used as positive control (100% inhibition) and 1% DMSO as negative control (0% inhibition).
The following compounds have been or can be prepared according to the synthetic methods described above. For the purpose of Table 2 below, activity of each compound, which can be determined using the PDE1A assay method described in above, is expressed as follows: […]

Row | pIC50 | Structure (SMILES)
1 | 6.30 to 7.00 | CCCc1nn(C)c2c(=O)[nH]c(N(C)Cc3csc(-c4ccc(C(F)(F)F)cc4)n3)nc12 [Example 39, 1-methyl-5-(methyl((2-(4-(trifluoromethyl)phenyl)thiazol-4-yl)methyl)amino)-3-propyl-1H-pyrazolo[4,3-d]pyrimidin-7(6H)-one]
2 | 6.30 to 7.00 | CCCc1nn(C)c2c(=O)[nH]c(N(C)Cc3cccc(N4CCOCC4)n3)nc12 [Example 42, 1-methyl-5-(methyl((6-morpholinopyridin-2-yl)methyl)amino)-3-propyl-1H-pyrazolo[4,3-d]pyrimidin-7(6H)-one]
3 | > 7.00 | CCCc1nn(C)c2c(=O)[nH]c(N(C)Cc3cccc(-c4ccncc4)c3)nc12 [Example 43, 1-methyl-5-(methyl(3-(pyridin-4-yl)benzyl)amino)-3-propyl-1H-pyrazolo[4,3-d]pyrimidin-7(6H)-one]
4 | 6.30 to 7.00 | CCCc1nn(C)c2c(=O)[nH]c(N(C)Cc3ccc(-c4ccccn4)cc3)nc12 [Example 44, 1-methyl-5-(methyl(4-(pyridin-2-yl)benzyl)amino)-3-propyl-1H-pyrazolo[4,3-d]pyrimidin-7(6H)-one]
5 | > 7.00 | CCCc1nn(C)c2c(=O)[nH]c(N(CCC(C)C)Cc3ccc(Cl)c(Cl)c3)nc12 [Example 45, 5-((3,4-dichlorobenzyl)(isopentyl)amino)-1-methyl-3-propyl-1H-pyrazolo[4,3-d]pyrimidin-7(6H)-one]
6 | 6.30 to 7.00 | CCCCN(Cc1ccc(Cl)c(Cl)c1)c1nc2c(CCC)nn(C)c2c(=O)[nH]1 [Example 46, 5-(butyl(3,4-dichlorobenzyl)amino)-1-methyl-3-propyl-1H-pyrazolo[4,3-d]pyrimidin-7(6H)-one]
7 | > 7.00 | CCCc1nn(C)c2c(=O)[nH]c(N(C)Cc3sc(-c4ccccc4)nc3C)nc12 [Example 47, 1-methyl-5-(methyl((4-methyl-2-phenylthiazol-5-yl)methyl)amino)-3-propyl-1H-pyrazolo[4,3-d]pyrimidin-7(6H)-one]
8 | < 6.30 | CCCc1nn(C)c2c(=O)[nH]c(N(C)Cc3cccc(OCCN4CCOCC4)c3)nc12 [Example 48, 1-methyl-5-(methyl(3-(2-morpholinoethoxy)benzyl)amino)-3-propyl-1H-pyrazolo[4,3-d]pyrimidin-7(6H)-one]
9 | > 7.00 | CCCc1nn(C)c2c(=O)[nH]c(NCc3nn(-c4ccccc4)nc3C)nc12 [Example 52, 1-methyl-5-((5-methyl-2-phenyl-2H-1,2,3-triazol-4-yl)methylamino)-3-propyl-1H-pyrazolo[4,3-d]pyrimidin-7(6H)-one]
10 | 6.30 to 7.00 | CCCc1nn(C)c2c(=O)[nH]c(NCc3ccnc(N4CCOCC4)c3)nc12 [Example 54, 1-methyl-5-((2-morpholinopyridin-4-yl)methylamino)-3-propyl-1H-pyrazolo[4,3-d]pyrimidin-7(6H)-one]
11 | 6.30 to 7.00 | CCCc1nn(C)c2c(=O)[nH]c(NCc3cccc(N4CCOCC4)c3)nc12 [Example 56, 1-methyl-5-(3-morpholinobenzylamino)-3-propyl-1H-pyrazolo[4,3-d]pyrimidin-7(6H)-one]
12 | 6.30 to 7.00 | CCCc1nn(C)c2c(=O)[nH]c(NCc3ccn(-c4ccccc4)n3)nc12 [Example 57, 1-methyl-5-((1-phenyl-1H-pyrazol-3-yl)methylamino)-3-propyl-1H-pyrazolo[4,3-d]pyrimidin-7(6H)-one]
13 | 6.30 to 7.00 | CCCc1nn(C)c2c(=O)[nH]c(NCc3ccc4c(c3)CCO4)nc12 [Example 62, 5-((2,3-dihydrobenzofuran-5-yl)methylamino)-1-methyl-3-propyl-1H-pyrazolo[4,3-d]pyrimidin-7(6H)-one]
14 | > 7.00 | CCCc1nn(C)c2c(=O)[nH]c(NCc3cc(-c4ccccc4)nn3C)nc12 [Example 66, 1-methyl-5-((1-methyl-3-phenyl-1H-pyrazol-5-yl)methylamino)-3-propyl-1H-pyrazolo[4,3-d]pyrimidin-7(6H)-one]
15 | > 7.00 | CCCc1nn(C)c2c(=O)[nH]c(NCc3cccc(-c4ccn(C)n4)c3)nc12 [Example 67]
16 | 6.30 to 7.00 | CCCc1nn(C)c2c(=O)[nH]c(NCc3ccc4c(ccn4C)c3)nc12 [Example 68, 1-methyl-5-((1-methyl-1H-indol-5-yl)methylamino)-3-propyl-1H-pyrazolo[4,3-d]pyrimidin-7(6H)-one]

The remaining lines, values behind:

Row | Structure (SMILES) | pIC50
17 | CCCc1nn(C)c2c(=O)[nH]c(N(C)Cc3cc4cccnc4s3)nc12 [Example 36, 1-methyl-5-(methyl(thieno[2,3-b]pyridin-2-ylmethyl)amino)-3-propyl-1H-pyrazolo[4,3-d]pyrimidin-7(6H)-one] | 6.30 to 7.00
18 | CCCc1nn(C)c2c(=O)[nH]c(N3CCc4cc(OC)c(OC)cc4C3C)nc12 (stereo not shown) [Example 37, 5-(6,7-dimethoxy-1-methyl-3,4-dihydroisoquinolin-2(1H)-yl)-1-methyl-3-propyl-1H-pyrazolo[4,3-d]pyrimidin-7(6H)-one] | 6.30 to 7.00
19 | CCCc1nn(C)c2c(=O)[nH]c(N(C)Cc3cc(-c4ccccc4)nn3C)nc12 [Example 38, 1-methyl-5-(methyl((1-methyl-3-phenyl-1H-pyrazol-5-yl)methyl)amino)-3-propyl-1H-pyrazolo[4,3-d]pyrimidin-7(6H)-one] | > 7.00
20 | CCCc1nn(C)c2c(=O)[nH]c(N(C)Cc3ccc(-c4ccncc4)cc3)nc12 [Example 40, 1-methyl-5-(methyl(4-(pyridin-4-yl)benzyl)amino)-3-propyl-1H-pyrazolo[4,3-d]pyrimidin-7(6H)-one] | > 7.00
21 | CCCc1nn(C)c2c(=O)[nH]c(N(C)Cc3ccnc(N4CCCC4)c3)nc12 [Example 41, 1-methyl-5-(methyl((2-(pyrrolidin-1-yl)pyridin-4-yl)methyl)amino)-3-propyl-1H-pyrazolo[4,3-d]pyrimidin-7(6H)-one] | < 6.30
22 | CCCc1nn(C)c2c(=O)[nH]c(N(C)Cc3ccc(OCCN4CCOCC4)cc3)nc12 [Example 49, 1-methyl-5-(methyl(4-(2-morpholinoethoxy)benzyl)amino)-3-propyl-1H-pyrazolo[4,3-d]pyrimidin-7(6H)-one] | 6.30 to 7.00
23 | CCCc1nn(C)c2c(=O)[nH]c(NCc3ccccc3OCCN3CCOCC3)nc12 [Example 50, 1-methyl-5-(2-(2-morpholinoethoxy)benzylamino)-3-propyl-1H-pyrazolo[4,3-d]pyrimidin-7(6H)-one] | < 6.30
24 | CCCc1nn(C)c2c(=O)[nH]c(NCc3c(-c4ccccc4)noc3C)nc12 [Example 51, 1-methyl-5-((5-methyl-3-phenylisoxazol-4-yl)methylamino)-3-propyl-1H-pyrazolo[4,3-d]pyrimidin-7(6H)-one] | 6.30 to 7.00
25 | CCCc1nn(C)c2c(=O)[nH]c(NCc3cccc(CN4CCOCC4)c3)nc12 [Example 53, 1-methyl-5-(3-(morpholinomethyl)benzylamino)-3-propyl-1H-pyrazolo[4,3-d]pyrimidin-7(6H)-one] | < 6.30
26 | CCCc1nn(C)c2c(=O)[nH]c(NCc3cccc(OCCN4CCOCC4)c3)nc12 [Example 55, 1-methyl-5-(3-(2-morpholinoethoxy)benzylamino)-3-propyl-1H-pyrazolo[4,3-d]pyrimidin-7(6H)-one] | 6.30 to 7.00
27 | CCCc1nn(C)c2c(=O)[nH]c(N(C)Cc3cccc4ccccc34)nc12 [Example 58, 1-methyl-5-(methyl(naphthalen-1-ylmethyl)amino)-3-propyl-1H-pyrazolo[4,3-d]pyrimidin-7(6H)-one] | < 6.30
28 | CCCc1nn(C)c2c(=O)[nH]c(N3CCN(C(=O)C(c4ccccc4)c4ccccc4)CC3)nc12 [Example 59, 5-(4-(2,2-diphenylacetoyl)piperazin-1-yl)-1-methyl-3-propyl-1H-pyrazolo[4,3-d]pyrimidin-7(6H)-one] | < 6.30
29 | CCCc1nn(C)c2c(=O)[nH]c(N3CCC(C(F)(F)F)CC3)nc12 [Example 60, 1-methyl-3-propyl-5-(4-(trifluoromethyl)piperidin-1-yl)-1H-pyrazolo[4,3-d]pyrimidin-7(6H)-one] | < 6.30
30 | CCCc1nn(C)c2c(=O)[nH]c(N(C)Cc3ccc(N4CCOCC4)cc3)nc12 [Example 61, 1-methyl-5-(methyl(4-morpholinobenzyl)amino)-3-propyl-1H-pyrazolo[4,3-d]pyrimidin-7(6H)-one] | 6.30 to 7.00
31 | CCCc1nn(C)c2c(=O)[nH]c(NCc3cccc(-n4cccn4)c3)nc12 [Example 63] | 6.30 to 7.00
32 | CCCc1nn(C)c2c(=O)[nH]c(NCc3cccc(-n4cccc4)c3)nc12 [Example 64] | 6.30 to 7.00
33 | CCCc1nn(C)c2c(=O)[nH]c(N(C)Cc3cccc(-c4csc(C)n4)c3)nc12 [Example 65, 1-methyl-5-(methyl(3-(2-methylthiazol-4-yl)benzyl)amino)-3-propyl-1H-pyrazolo[4,3-d]pyrimidin-7(6H)-one] | 6.30 to 7.00
34 | CCCc1nn(C)c2c(=O)[nH]c(NCc3ccc4ccn(C)c4c3)nc12 [Example 69, 1-methyl-5-((1-methyl-1H-indol-6-yl)methylamino)-3-propyl-1H-pyrazolo[4,3-d]pyrimidin-7(6H)-one] | 6.30 to 7.00
